{
  "source": "patent US20250214978A1",
  "about": "“AT2R AGONIST” (WUHAN HUMANWELL INNOVATIVE DRUG RESEARCH AND DEVELOPMENT …, priority 2022, published 2025)",
  "key": {"[1]": {"target": "AT2R (Homo sapiens (Human), UniProt P50052)", "sequence (P50052 whole entry)": "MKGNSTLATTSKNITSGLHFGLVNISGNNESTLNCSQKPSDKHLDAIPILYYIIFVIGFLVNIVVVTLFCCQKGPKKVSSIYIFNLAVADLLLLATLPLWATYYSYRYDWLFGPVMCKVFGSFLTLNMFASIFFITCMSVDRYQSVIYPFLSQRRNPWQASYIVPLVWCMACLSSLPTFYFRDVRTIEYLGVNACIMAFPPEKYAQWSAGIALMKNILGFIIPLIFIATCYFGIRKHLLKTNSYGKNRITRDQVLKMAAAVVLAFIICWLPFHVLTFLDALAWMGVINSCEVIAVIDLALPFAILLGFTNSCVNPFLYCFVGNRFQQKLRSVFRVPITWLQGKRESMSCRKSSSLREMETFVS", "assay": "Binding assay of compounds to AT2R (Tag-lite HTRF ligand binding kit)", "details": "1 hour incubation at room temperature", "description": "The assay was performed in accordance with the instruction manual of Angiotensin AT2 Receptor Ligand Binding Assay Kit (#C1TT1AT2, Cisbio). First, a compound stock solution (10 mM) was diluted in a gradient at a 5× dilution ratio (including 10 concentrations, each with two replicates). 160 nL of compounds at different concentrations was added to a 384-well plate. 40 μL of 1×TLB was added to each well, and the mixture was shaken at room temperature for 15 minutes. 15 mL centrifuge tube added with 5 mL of 1×TLB was prepared in advance. The frozen labeled cells were thawed in a water bath at 37° C. (for 1 to 2 minutes), and the thawed cells were quickly transferred to the above 15 mL centrifuge tube. The mixture was mixed well and centrifuged at 1,000 g at room temperature for 5 minutes. The supernatant was removed, and the cells were resuspended by adding 2.7 mL 1×TLB. A new 384-well plate was taken, and 10 μL of mixed cells were added into the corresponding wells according to the assay design. 5 μL of 4× compound solution and 5 μL of 4× Tag-lite red fluorescent labeled ligand were added to each well. After incubation at room temperature for 1 hour, data were read using EnVision with an HTRF mode. The excitation light intensities at 665 nM and 615 nM in each well were read respectively, and the ratio was calculated (Ratio=A665nMIB615 nM). The IC50 value was calculated by means of GraphPad Prism8 software, where X represents logarithmic value of compound concentration; and Y represents ratio of A665 nM/B615 nM."}, "[2]": {"assay": "Free plasma protein binding (PPB) assay, equilibrium dialysis", "type": "in vitro ADME", "details": "dialysis 6 hours at 37° C.", "description": "The dried dialysis membrane was soaked in ultrapure water for 1 hour, then soaked in 20% ethanol for 20 minutes, and then rinsed with ultrapure water for 2 to 3 times. Finally, the dried dialysis membrane was soaked in ultrapure water for 20 minutes for later use. The frozen plasma was thawed in a water bath at 37° C. for about 20 minutes. pH value of the plasma was measured after thawing was complete, and was adjusted to 7.4 with 1% phosphoric acid solution or 0.1M sodium hydroxide solution. […] The pretreated dialysis membrane was assembled into the dialysis plate according to product instructions, and 100 μL of receiving solution (100 mM phosphate buffer solution plus 0.002% Tween 80) was added to one side of the permeable membrane in each dialysis well. 20 μL of each of the final solution of the test compound and the final solution of the control compound were taken in a 96-well sample plate, two duplicate samples were made, and T0 sample was obtained, which was stored in a −20° C. refrigerator. Another 100 μL of each of the above-mentioned final solutions were taken to the other side of the membrane in the dialysis device, two duplicate samples were made, and incubated at 37° C. with constant shaking for 6 hours. After 6 hours of incubation, 20 μL of each of the dialyzed receiving solution and the administered plasma were taken, two duplicate samples were made, and sample A and sample B were obtained. Corresponding blank plasma or receiving solution of corresponding volume were added to sample B and sample A, respectively, allowing the volume ratio of plasma to buffer in each sample well to be 1:1. 300 μL of sample-containing internal standard acetonitrile solution was added to all the sample wells. The mixture was mixed well, and centrifuged at 5,500×g for 10 minutes. 150 μL of corresponding ultrapure water was added to the corresponding sample wells of the 96-well sample plate. 150 μL of the supernatant was taken into the sample wells, and mixed well. Then, LC/MS/MS analysis was performed. The calculation formula of fu is: […]\nwhere: CR: peak area ratio measured in the receiving chamber well CD: peak area ratio measured in the supply chamber well."}, "[3]": {"assay": "Liver microsome stability assay", "type": "in vitro ADME", "details": "Mouse liver microsomes; read-out: T1/2 (min) Mouse"}},
  "note": "Read-outs that look alike come from different tables or passages of the source.",
  "data": [
    {"smiles": "COC(=O)NS(=O)(=O)c1sc(CC(C)C)c(C)c1-c1ccc(Cn2ccnc2Cl)cc1", "note": "[Compound I-34, Methyl ((3-(4-((2-chloro-1H-imidazol-1-yl)methyl)phenyl)-5-isobutyl-4-methylthiophen-2-yl)sulfonyl)carbamate]", "values": [
      {"measurement": "IC50", "setting": "[1]", "result": 4.32, "unit": "nM"},
      {"measurement": "fraction unbound at 6 h, 1 μM", "setting": "[2]; dog, pH 7.4, Canine plasma, read-out: fu % Canine", "result": 0.0141},
      {"measurement": "fraction unbound at 6 h, 1 μM", "setting": "[2]; pH 7.4, Human plasma, read-out: fu % Human", "result": 0.008},
      {"measurement": "fraction unbound at 6 h, 1 μM", "setting": "[2]; pH 7.4, Mouse plasma, read-out: fu % Mouse", "result": 0.0093},
      {"measurement": "fraction unbound at 6 h, 1 μM", "setting": "[2]; pH 7.4, Rat plasma, read-out: fu % Rat", "result": 0.0289},
      {"measurement": "half-life at 1 μM", "setting": "[3]", "result": 61.9, "unit": "min"}
    ]}
  ]
}
